Pest or weed control data for twelve molecules are collected here from US9113629B2, “4-amino-6-(4-substituted-phenyl)-picolinates and 6-amino-2-(4-substituted-phenyl)-pyrimidine-4-carboxylates and their use as herbicides” (DOW AGROSCIENCES LLC, priority 2013, dated 2015).

Test in all cases: Post-emergent Test I herbicidal activity
Common to all, as to assay type: in vivo

Assay [1] relates to IPOHE: ivyleaf morningglory (Ipomoea hederecea). The note with it: post-emergence, 336 h, read-out: Visual Growth Reduction (%) 14 Days After Application, IPOHE; for pest or weed control at 3960 g/ha: 3.96 kg ai/ha; for pest or weed control at 4000 g/ha: 4 kg ai/ha; for pest or weed control at 4040 g/ha: 4.04 kg ai/ha. How it is done: (§1) Post-emergent Test I Seeds test species were obtained from commercial suppliers and planted into a 13 cm diameter-round pot containing soil-less media mix (metro-mix 360®, Sun Gro Horticulture). Postemergence treatments were planted 8-12 days prior to application and cultured in a greenhouse equipped with supplemental light sources to provide a 16 h photoperiod at 24-29° C. All pots were surface irrigated.
(§2) A weighted amount, determined by the highest rate to be tested, of each compound was dissolved in 1.3 mL acetone-DMSO (97:3, v/v) and diluted with 4.1 mL water-isopropanol-crop oil concentrate (78:20:2, v/v/v) containing 0.02% Triton X-155 to obtain concentrated stock solutions. Additional application rates were obtained by serial dilution of the high rate solution into a solution containing appropriate volume of 97:3 v/v mixture of acetone and DMSO and appropriate volume of an aqueous mixture of water, isopropyl alcohol, crop oil concentrate (78:20:2, v/v/v) containing 0.02% Triton X-155.
(§3) Formulated compounds were applied using a DeVilbiss® compressed air sprayer at 2-4 psi. Following treatment, pots were returned to the greenhouse for the duration of the experiment. All pots were sub-irrigated as need to provide optimum growing conditions. All pots were fertilized one time per week by subirrigating with Peters Peat-Lite Special® fertilizer (20-10-20).
(§4) […] All evaluations were made visually on a scale of 0 to 100 where 0 represents no activity and 100 represents complete plant death. Visual assessments of plant injury were made based on growth reduction, discoloration, leaf deformity and necrosis.

The test system of assay [2] is HELAN: sunflower (Helianthus annuus). The following applies: post-emergence, 336 h, read-out: Visual Growth Reduction (%) 14 Days After Application, HELAN; for pest or weed control at 3960 g/ha: 3.96 kg ai/ha; for pest or weed control at 4000 g/ha: 4 kg ai/ha; for pest or weed control at 4040 g/ha: 4.04 kg ai/ha. How it is done: as §1, §2, §3, §4
Assay [3] concerns AVEFA: wild oats (Avena fatua). The following applies: post-emergence, 336 h, read-out: Visual Growth Reduction (%) 14 Days After Application, AVEFA; for pest or weed control at 3960 g/ha: 3.96 kg ai/ha. As to the method: as §1, §2, §3, §4
For assay [4], the system named is SETFA: giant foxtail (Setaria faberi). The note with it: post-emergence, 336 h, read-out: Visual Growth Reduction (%) 14 Days After Application, SETFA; for pest or weed control at 3960 g/ha: 3.96 kg ai/ha; for pest or weed control at 4000 g/ha: 4 kg ai/ha; for pest or weed control at 4040 g/ha: 4.04 kg ai/ha. How it is done:
as §1, §2, §3, §4

The subject of assay [5] is AMARE: redroot pigwseed (Amaranthus retroflexus). The following applies: post-emergence, read-out: Visual Growth Reduction (%), AMARE; for pest or weed control at 4000 g/ha: 4 kg ai/ha. How it is done: as §1, §2, §3, §4
In assay [6] the test system is ECHCG: barnyardgrass (Echinochloa crus-galli). The note with it: post-emergence, 336 h, read-out: Visual Growth Reduction (%) 14 Days After Application, ECHCG; for pest or weed control at 3960 g/ha: 3.96 kg ai/ha; for pest or weed control at 4000 g/ha: 4 kg ai/ha; for pest or weed control at 4040 g/ha: 4.04 kg ai/ha. As to the method: as §1, §2, §3, §4

Take `COC(=O)c1nc(-c2ccc(C#N)cc2F)cc(N)c1Cl` [Compound 16]: the pest or weed control at 3840 g/ha in assay [1] (3.84 kg ai/ha) lay within 95 to 100%; in assay [2] (3.84 kg ai/ha), 95 to 100%; in assay [3] (3.84 kg ai/ha) it was 0 to 29%; in assay [4] (3.84 kg ai/ha), 60 to 74%; in assay [5] (3.84 kg ai/ha) it was 95 to 100%; in assay [6] (3.84 kg ai/ha), 45 to 59%.
On to `N#Cc1ccc(-c2nc(C(=O)O)c(Cl)c(N)c2F)cc1` [Compound 39], for which the pest or weed control at 2000 g/ha in assay [1] (2 kg ai/ha) was in the range of 60 to 74%; in assay [2] (2 kg ai/ha), 95 to 100%; in assay [3] (2 kg ai/ha), 75 to 84%; in assay [5] (2 kg ai/ha), 95 to 100%; in assay [6] (2 kg ai/ha) it was 85 to 94%.
As for `Nc1c(F)c(-c2ccc(I)cc2)nc(C(=O)O)c1Cl` [Compound 45, 4-amino-3-chloro-5-fluoro-6-(4-iodophenyl)picolinic acid], the pest or weed control at 3960 g/ha in assay [1] was in the range of 85 to 94%; in assay [2] it was 95 to 100%; in assay [3] it was 95 to 100%; in assay [4] it was 95 to 100%; in assay [5] (3.96 kg ai/ha), 95 to 100%; in assay [6], 95 to 100%.
`COC(=O)c1nc(-c2ccc(OC(F)F)cc2)c(F)c(N)c1Cl` [Compound 85]: the pest or weed control at 3760 g/ha fell in the range of 30 to 44% in assay [1] (3.76 kg ai/ha); 95 to 100% in assay [2] (3.76 kg ai/ha); 30 to 44% in assay [3] (3.76 kg ai/ha); 85 to 94% in assay [4] (3.76 kg ai/ha); 95 to 100% in assay [5] (3.76 kg ai/ha); 95 to 100% in assay [6] (3.76 kg ai/ha).
Take `COC(=O)c1nc(-c2ccc(Br)c(F)c2F)c(F)c(N)c1Cl` [Compound 109, methyl 4-amino-6-(4-bromo-2,3-difluorophenyl)-3-chloro-5-fluoropicolinate]: the pest or weed control at 4000 g/ha is 85 to 94% in assay [1]; 95 to 100% in assay [2]; 75 to 84% in assay [3] (4 kg ai/ha); 95 to 100% in assay [4]; 95 to 100% in assay [6].
Take `COC(=O)c1nc(-c2ccc(Br)c(F)c2F)cc(N)c1Cl` [Compound 114, methyl 4-amino-6-(4-bromo-2,3-difluorophenyl)-3-chloropicolinate]: the pest or weed control at 3920 g/ha was 85 to 94% in assay [1] (3.92 kg ai/ha); 95 to 100% in assay [2] (3.92 kg ai/ha); 0 to 29% in assay [3] (3.92 kg ai/ha); 75 to 84% in assay [4] (3.92 kg ai/ha); 95 to 100% in assay [5] (3.92 kg ai/ha); 95 to 100% in assay [6] (3.92 kg ai/ha).
With `COC(=O)c1nc(-c2ccc(I)cc2)c(F)c(N)c1Cl` [Compound 118, Methyl 4-amino-6-(4-iodophenyl)-3-chloro-5-fluoropicolinate], the pest or weed control at 2320 g/ha in assay [1] (2.32 kg ai/ha), in assay [2] (2.32 kg ai/ha), in assay [3] (2.32 kg ai/ha), in assay [4] (2.32 kg ai/ha), in assay [5] (2.32 kg ai/ha) and in assay [6] (2.32 kg ai/ha) was 95 to 100% throughout.
For `Nc1c(F)c(-c2ccc(OC(F)F)cc2)nc(C(=O)O)c1Cl` [Compound 143], the pest or weed control at 4000 g/ha in assay [1] lay within 45 to 59%; in assay [2], 95 to 100%; in assay [4], 95 to 100%; in assay [5] it was 95 to 100%; in assay [6], 95 to 100%.
On to `COC(=O)c1nc(-c2cccc(F)c2F)c(F)c(N)c1Cl` [Compound 199], for which the pest or weed control at 4000 g/ha lay in the range of 75 to 84% in assay [1]; 95 to 100% in assay [2]; 85 to 94% in assay [4]; 95 to 100% in assay [5]; 60 to 74% in assay [6].
For the molecule `COC(=O)c1nc(-c2ccccc2F)c(F)c(N)c1Cl` [Compound 206], the pest or weed control at 4040 g/ha in assay [1] is 75 to 84%; in assay [2], 95 to 100%; in assay [4] it was 0 to 29%; in assay [5] (4.04 kg ai/ha), 95 to 100%; in assay [6] it was 0 to 29%.
In the case of `C=Cc1c(C(=O)O)nc(-c2ccc(Cl)c(F)c2)c(F)c1N` [Compound 214], the pest or weed control at 4040 g/ha in assay [1] lay within 95 to 100%; in assay [2] it was 95 to 100%; in assay [3] (4.04 kg ai/ha), 60 to 74%; in assay [4] it was 85 to 94%; in assay [6], 95 to 100%.
For the molecule `C=Cc1c(C(=O)OC)nc(-c2ccc(Cl)c(F)c2)c(F)c1N` [Compound 215, methyl 4-amino-6-(4-chloro-3-fluorophenyl)-5-fluoro-3-vinylpicolinate], the pest or weed control at 3960 g/ha in assay [1] lay within 95 to 100%; in assay [2], 95 to 100%; in assay [3], 30 to 44%; in assay [4], 0 to 29%; in assay [6] it was 85 to 94%.
